Experimental data reported in patent US8178496B2, “Photoreactive regulator of glutamate receptor function and methods of use thereof” (The Regents of the University of California, priority 2007, dated 2012).
“Also recorded” adds a separate entry of the source.

Experiments:
wild-type iGluR6(Q) = target: T1, wild-type iGluR6(Q) (Homo sapiens, UniProt Q13002); assay: Whole-cell voltage clamp recording in HEK293 cells expressing iGluR6(Q); assay type: cell-based
T1 construct: expressed in transfected cells; host or cells: HEK293
T1 sequence (Q13002 32-908): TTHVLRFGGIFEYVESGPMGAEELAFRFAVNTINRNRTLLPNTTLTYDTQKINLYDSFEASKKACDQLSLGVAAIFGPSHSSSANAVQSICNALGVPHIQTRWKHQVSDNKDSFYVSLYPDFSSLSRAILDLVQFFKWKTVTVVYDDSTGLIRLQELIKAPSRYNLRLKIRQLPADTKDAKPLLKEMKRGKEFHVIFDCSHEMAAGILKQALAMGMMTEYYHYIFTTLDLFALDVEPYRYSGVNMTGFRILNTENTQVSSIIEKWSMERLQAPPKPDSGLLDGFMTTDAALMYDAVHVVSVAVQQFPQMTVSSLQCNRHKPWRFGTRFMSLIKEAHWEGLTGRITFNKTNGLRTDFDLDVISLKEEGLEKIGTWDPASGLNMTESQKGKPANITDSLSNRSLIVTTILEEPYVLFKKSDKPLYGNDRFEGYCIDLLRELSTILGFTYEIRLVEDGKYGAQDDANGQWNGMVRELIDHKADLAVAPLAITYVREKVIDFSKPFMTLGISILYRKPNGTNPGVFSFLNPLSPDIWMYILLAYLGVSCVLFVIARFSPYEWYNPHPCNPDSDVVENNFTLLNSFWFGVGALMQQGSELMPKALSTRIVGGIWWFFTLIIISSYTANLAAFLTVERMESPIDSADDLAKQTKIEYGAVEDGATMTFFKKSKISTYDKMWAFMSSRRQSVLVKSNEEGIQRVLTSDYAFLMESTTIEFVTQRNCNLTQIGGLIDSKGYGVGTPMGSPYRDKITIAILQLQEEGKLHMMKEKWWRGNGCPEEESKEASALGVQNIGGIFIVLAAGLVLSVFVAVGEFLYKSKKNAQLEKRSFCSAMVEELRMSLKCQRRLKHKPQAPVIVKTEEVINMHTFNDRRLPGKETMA
Procedure: (§1) HEK293 cells were plated at approximately 3×10^6 cells/ml on poly-L-lysine-coated glass coverslips (Deutsche Spiegelglas, Carolina Biological) and maintained in DMEM with 5% newborn calf serum, 0.2 mg/ml streptomycin, and 200 U/ml penicillin at 37° C. Cells were transiently transfected with various plasmids using lipofectamine 2000 (Invitrogen). The amount of total transfected ionotropic glutamate receptor-2 (iGluR2), iGluR5, and iGluR6 DNA and enhanced yellow fluorescent protein (EYFP) fusion DNA per 0.5 mL well was fixed at 0.7 μg and 0.3 μg, respectively. All recordings were carried out 24 to 48 h after transfection.
(§2) Patch clamp recordings were carried out using an Axopatch 200A amplifier in the whole cell mode. HEK cells were voltage clamped at −60 mV and hippocampal neurons were current clamped at −65 mV. Pipettes had resistances 2-6 MΩ. For experiments in HEK cells, pipettes were filled with a solution containing (in mM): 145 CsCl, 5 EGTA, 0.5 CaCl2, 1.0 MgCl2 and 10 HEPES at pH7.2 (CsOH). The extracellular solution contained (in mM): 135 NaCl, 5.4 KCl, 0.9 MgCl2, 1.8 CaCl2, and 10 HEPES at pH 7.6 (NaOH). Cells were preincubated for 10 min in control solution containing 300 mg/l Concanavalin A type VI (Sigma) in order to block desensitization. For experiments in hippocampal neurons, pipettes were filled with a solution containing (in mM): 10 NaCl, 1 EGTA, 135 K-gluconate, 2.0 MgCl2, 10 HEPES and 2 Mg-ATP at pH7.4 (KOH). The extracellular solution contained (in mM): 138 NaCl, 1.5 KCl, 1.2 MgCl2, 2.5 CaCl2, 10 glucose and 10 HEPES at pH 7.3 (NaOH). L-Glutamate, DNQX, and compound 2 were applied as reported in text and figures with complete exchange of the bath solution occurring in less than 10 sec. Compound 2 was not pre-irradiated prior to perfusion, but the bath and coverslip were continuously under illumination as denoted in traces. Following complete exchange of the bath, perfusion of 2 was stopped prior to switching illumination wavelengths. Illumination was applied using a TILL Photonics Polychrome V monochromator through a 40×/0.60 W objective (power output: 4.8 mW/mm^2 at 500 nm and 1.8 mW/mm^2 at 380 nm, as measured with a Newport optical power meter). Data was recorded with pClamp software, which was also used to automatically control the monochromator by means of sequencing keys. The results are representative data from multiple cells in at least three independent cultures.

iGluR2(Q)flip-L483Y = assay: Whole-cell voltage clamp recording in HEK293 cells expressing iGluR2; assay type: cell-based
Procedure: as §1
Patch clamp recordings were carried out using an Axopatch 200A amplifier in the whole cell mode. HEK cells were voltage clamped at −60 mV and hippocampal neurons were current clamped at −65 mV. Pipettes had resistances 2-6 MΩ. For experiments in HEK cells, pipettes were filled with a solution containing (in mM): 145 CsCl, 5 EGTA, 0.5 CaCl2, 1.0 MgCl2 and 10 HEPES at pH7.2 (CsOH). […] Illumination was applied using a TILL Photonics Polychrome V monochromator through a 40×/0.60 W objective (power output: 4.8 mW/mm^2 at 500 nm and 1.8 mW/mm^2 at 380 nm, as measured with a Newport optical power meter). Data was recorded with pClamp software, which was also used to automatically control the monochromator by means of sequencing keys. […]

iGluR = assay: Rates of light-driven channel activation and deactivation (whole-cell patch clamp); assay type: cell-based; conditions: mean±s.e.m., n=3
Procedure: as §2, with “L-Glutamate, DNQX, and compound 2 were applied as reported in text and figures with complete exchange of the bath solution occurring in less than 10 sec. Compound 2 was not pre-irradiated prior to perfusion, but the bath and coverslip were continuously under illumination as denoted in traces. Following complete exchange of the bath, perfusion of 2 was stopped prior to switching illumination wavelengths.” left out, “The results are representative data from multiple cells in at least three independent cultures.” left out

[1] = Photostationary state determination by NMR with in situ irradiation; assay type: physicochemical; conditions: D2O, mean±s.e.m., n=3
Procedure: Cis/trans photoisomerization of 2 was studied by ^1H NMR, with in situ irradiation of the sample using a Polychrome V system monochromator (TILL Photonics) containing a 150 W Xenon short arc lamp with an output range of 320-680 nm. The half-power bandwidth was 14 nm. A 500 μl aliquot of a 100 mM sample in D2O was prepared in a screw-capped 528-TR-7 NMR tube (Wilmad). A FT-600-UMT fiber optic cable (NA 0.39) (Thorlabs) was coupled at one end to the monochromator using a custom fitting and the other end inserted into the NMR tube a few millimeters above the solution. Each sample was irradiated at the desired wavelength for 30 minutes to reach the photostationary state and 480 scans were required to obtain reasonable signal-to-noise ratios. The output from the fiber optic cable between 340-480 nm ranged from 0.3-9.0 μW/cm^2. Data were processed by isolating aromatic cis-trans ^1H signals and summing their integrals to 1.0. All data were obtained in triplicate and averaged.

[2] = system: cultured rat hippocampal neurons; assay: Whole-cell current clamp recording of cultured hippocampal neurons; assay type: cell-based
Procedure: as §2, with “L-Glutamate, DNQX, and compound 2 were applied as reported in text and figures with complete exchange of the bath solution occurring in less than 10 sec. Compound 2 was not pre-irradiated prior to perfusion, but the bath and coverslip were continuously under illumination as denoted in traces. Following complete exchange of the bath, perfusion of 2 was stopped prior to switching illumination wavelengths.” left out, “The results are representative data from multiple cells in at least three independent cultures.” left out

iGluR5(Q) = target: T2, iGluR5(Q) (Homo sapiens, UniProt P39086); assay: Whole-cell voltage clamp dose-response in HEK293 cells expressing iGluR5(Q); assay type: cell-based
T2 construct: expressed in transfected cells; host or cells: HEK293
T2 sequence (P39086 31-918): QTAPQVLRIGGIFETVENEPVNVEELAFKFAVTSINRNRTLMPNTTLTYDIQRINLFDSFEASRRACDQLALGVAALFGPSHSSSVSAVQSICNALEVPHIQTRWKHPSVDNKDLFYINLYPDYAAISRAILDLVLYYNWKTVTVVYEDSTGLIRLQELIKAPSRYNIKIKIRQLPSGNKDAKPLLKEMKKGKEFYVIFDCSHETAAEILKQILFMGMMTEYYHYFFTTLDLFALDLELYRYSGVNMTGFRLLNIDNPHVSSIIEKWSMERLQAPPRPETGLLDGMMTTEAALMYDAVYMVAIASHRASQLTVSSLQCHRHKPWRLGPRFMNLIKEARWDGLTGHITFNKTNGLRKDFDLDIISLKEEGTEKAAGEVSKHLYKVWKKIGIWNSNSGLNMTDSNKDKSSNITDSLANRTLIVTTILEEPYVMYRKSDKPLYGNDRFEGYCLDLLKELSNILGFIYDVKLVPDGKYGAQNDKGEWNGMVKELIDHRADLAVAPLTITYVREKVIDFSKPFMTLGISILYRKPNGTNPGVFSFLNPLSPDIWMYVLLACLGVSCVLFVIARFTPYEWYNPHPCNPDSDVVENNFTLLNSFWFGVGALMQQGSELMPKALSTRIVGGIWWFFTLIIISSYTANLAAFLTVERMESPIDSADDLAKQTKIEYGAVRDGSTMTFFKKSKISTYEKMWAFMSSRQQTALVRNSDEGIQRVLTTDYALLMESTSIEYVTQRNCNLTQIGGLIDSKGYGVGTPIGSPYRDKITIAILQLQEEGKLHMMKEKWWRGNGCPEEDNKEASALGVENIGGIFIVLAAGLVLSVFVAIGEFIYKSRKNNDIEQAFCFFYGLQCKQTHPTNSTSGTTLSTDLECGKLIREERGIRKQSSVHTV
Procedure: as §1, §2

With N[C@@H](CC(C/C=C/c1ccc(/N=N/c2ccccc2)cc1)C(=O)O)C(=O)O (stereo partly shown) [Compound 2] the “extent of iGluR6 channel activation” value (wild-type iGluR6(Q); 25 μM) was “only activated to a small extent”, the “channel activation (inward currents) depending on wavelength of irradiation” value (wild-type iGluR6(Q); HEK293, ConA 0.3 mg/mL pretreated, trans- versus cis-state) was “increased inward currents in the trans-relative to the cis-state” and the “inward currents in the presence of 250 μM 2” value (iGluR2(Q)flip-L483Y; 250 μM, 380 and 500 nm illumination) was “failed to produce inward currents; also recorded: no effect in either the trans- (500 nm) or cis-state (380 nm)”. The “rate of deactivation τoff-380nm” value (iGluR; 380 nm, 1.8 mW/mm^2) was 250 ± 14 ms, the “rate of activation τon-500nm” value (iGluR; 500 nm, 4.8 mW/mm^2) was 310 ± 15 ms and the “photostationary state content of cis-2” value ([1]; 380 nm irradiation) was 76.3±0.3%. The “photostationary state content of trans-2” value ([1]; 500 nm irradiation) was 89±1%, the “light-controlled action potential firing” value ([2]; 25 μM, current clamped at −65 mV, no ConA, switching between 380 and 500 nm) was “sufficient to trigger, and extinguish, sustained trains of action potentials” and the “efficacy with respect to a 300 μM glutamate evoked response” value (iGluR5(Q); dose-response curves under 380 and 500 nm light) was “approximately half-maximal efficacy”. The “selectivity at iGluR5 over iGluR6 receptors” value (iGluR5(Q); dose-response curves, iGluR5(Q) versus iGluR6(Q)) was “high selectivity”, the “reduction of apparent agonist affinity (EC50) relative to 500 nm” value (iGluR5(Q); under 380 nm light) was about 10 fold and the EC50 (iGluR5(Q); under 500 nm illumination, read-out: apparent agonist affinity (EC50)) was 9 µM.

In the case of O=C1N=c2cc([N+](=O)[O-])c([N+](=O)[O-])cc2=NC1=O [DNQX, 6,7-dinitroquinoxaline-2,3-dione, reference compound], the “block of light activation with 2” value (wild-type iGluR6(Q); 10 μM DNQX together with 50 μM 2, 380 and 500 nm illumination) is reported as “Pharmacological block of light activation”, the “block of the activity of 2” value (wild-type iGluR6(Q); HEK293 expressing iGluR6(Q)) is reported as “competitively blocked” and the “block of light activation with 2” value ([2]; 10 μM DNQX together with 25 μM 2, 380 and 500 nm illumination) is reported as “Pharmacological block of light activation”.

In the case of N[C@@H](CCC(=O)O)C(=O)O [Glu, reference compound], the “inward current evoked by 300 μM Glu” value (iGluR2(Q)flip-L483Y; 300 μM) is reported as “evokes a large inward current”.
